Assay results: patent publication US20150297605A1, “METHODS FOR TREATING CANCER USING TOR KINASE INHIBITOR COMBINATION THERAPY” (Signal Pharmaceuticals, LLC, priority 2014, published 2015)

Assays:
Type in all cases: cell-based
[1] = tested on: 5637 and SKOV3 cancer cell lines; test: Anti-proliferation assay (CellTiter-Glo), Bliss independence model, overall conclusion; conditions: combination with romidepsin
Protocol: (§1) Anti-Proliferation Assay. […] Cells were thawed from a liquid nitrogen preserved state. Once cells were expanded and divided at their expected doubling times, screening began. Cells were seeded in their respective growth media in 96-well tissue culture treated plates at 2000 cells/well and placed in incubators at 37° C. the night before treatment. […] These T zero (T0) plates were read using luminescence on Spectramax Plate Readers. Treated assay plates were incubated with Compound for seventy-two hours. After seventy-two hours, plates were developed for endpoint analysis using CellTiter-Glo. The calculation for synergy score is provided below.
(§2) Growth Inhibition (GI) was used as a measure of cell viability. The cell viability of vehicle was measured at the time of dosing (T0) and after seventy-two hours (T72). A GI reading of 0% represents no growth inhibition—cells treated with compound and T72 vehicle signals are matched. A GI 100% represents complete growth inhibition—cells treated by compound and T0 vehicle signals are matched. […] A GI 200% represents complete death of all cells in the culture well. […] GI is calculated by applying the following test and equation: […]
(§3) We next compared the expected compound effect to the observed compound effect, and calculated the differences between the observed and the expected cell viability, expressed as % of control. […]

[2] = tested on: SKOV3 (ovarian cancer, romidepsin resistant cell line); test: Anti-proliferation assay (CellTiter-Glo), Bliss independence model, SKOV3; conditions: combination treatment with Romidepsin, SKOV3 (R), 72 h, greater than 10% considered synergistic
Protocol: as §1, §2, §3

[3] = tested on: 5637 (bladder cancer, romidepsin sensitive cell line); test: Anti-proliferation assay (CellTiter-Glo), Bliss independence model, 5637; conditions: combination treatment with Romidepsin, 5637 (S), 72 h, greater than 10% considered synergistic
Protocol: as §1, §2, §3

[4] = tested on: BT-549 breast cancer cell line; test: Anti-proliferation assay, synergy score, BT-549; conditions: in combination with Compound 1, 72 h, mean self cross score + 2σ 3.94
Protocol: (§4) Anti-Proliferation Assay. Cells were thawed from a liquid nitrogen preserved state. Once cells expanded and divided at their expected doubling times, screening began.
(§5) Cells were equilibrated in assay plates via centrifugation and placed in incubators attached to the Dosing Modules at 37° C. for twenty-four hours before treatment. […] These T zero (T0) plates were read using ultra-sensitive luminescence on Envision Plate Readers. Treated assay plates were incubated with compound (single compound or combination) for seventy-two hours. After seventy-two hours, platesweare developed for endpoint analysis using ATPLite. […] The calculation for synergy score is provided below.
(§6) Growth Inhibition (GI) was used as a measure of cell viability. The cell viability of vehicle was measured at the time of dosing (T0) and after seventy-two hours (T72). […] A GI 200% represents complete death of all cells in the culture well. Compounds reaching an activity plateau of GI 200% are considered cytotoxic. GI is calculated by applying the following test and equation: […]
(§7) where T is the signal measure for a test article, V is the vehicle-treated control measure, and V0 is the vehicle control measure at time zero. This formula is derived from the Growth Inhibition calculation used in the National Cancer Institute's NCI-60 high throughput screen.
(§8) Synergy Score Analysis. Synergy scores were determined using the Chalice Software (Zalicus Inc., Cambridge Mass.). […] The Synergy Score is calculated as: […]
(§9) The fractional inhibition for each component agent and combination point in the matrix was calculated relative to the median of all vehicle-treated control wells. […]
(§10) In order to objectively establish hit criteria for the combination screen analysis, twenty compounds were selected to be self-crossed across the seventeen cell line panel as a means to empirically determine a baseline additive, non-synergistic response. The identity of the twenty self-cross compounds was determined by selecting compounds with a variety of maximum response values and single agent dose response steepness.

[5] = tested on: HCC-1187 breast cancer cell line; test: Anti-proliferation assay, synergy score, HCC-1187; conditions: in combination with Compound 1, 72 h, mean self cross score + 2σ 4.80
Protocol: as §4, §5, §6, §7, §8, §9, §10

[6] = tested on: HCC-1937 breast cancer cell line; test: Anti-proliferation assay, synergy score, HCC-1937; conditions: in combination with Compound 1, 72 h, mean self cross score + 2σ 2.89
Protocol: as §4, §5, §6, §7, §8, §9, §10

[7] = tested on: MDA-MB-175-VII breast cancer cell line; test: Anti-proliferation assay, synergy score, MDA-MB-175-VII; conditions: in combination with Compound 1, 72 h, mean self cross score + 2σ 2.82
Protocol: as §4, §5, §6, §8, §9

[8] = tested on: BT-474 breast cancer cell line; test: Anti-proliferation assay, synergy score, BT-474; conditions: in combination with Compound 1, 72 h, mean self cross score + 2σ 3.37
Protocol: as §4, §5, §6, §7, §8, §9, §10

[9] = tested on: HCC-1500 breast cancer cell line; test: Anti-proliferation assay, synergy score, HCC-1500; conditions: in combination with Compound 1, 72 h, mean self cross score + 2σ 4.17
Protocol: as §4, §5, §6, §7, §8, §9, §10

[10] = tested on: HCC-1806 breast cancer cell line; test: Anti-proliferation assay, synergy score, HCC-1806; conditions: in combination with Compound 1, 72 h, mean self cross score + 2σ 5.05
Protocol: as §4, §5, §6, §7, §8, §9, §10

[11] = tested on: HCC-1428 breast cancer cell line; test: Anti-proliferation assay, synergy score, HCC-1428; conditions: in combination with Compound 1, 72 h, mean self cross score + 2σ 3.22
Protocol: as §4, §5, §6, §7, §8, §9, §10

[12] = tested on: BT-20 breast cancer cell line; test: Anti-proliferation assay, synergy score, BT-20; conditions: in combination with Compound 1, 72 h, mean self cross score + 2σ 3.23
Protocol: as §4, §5, §6, §7, §8, §9, §10

[13] = tested on: MDA-MB-453 breast cancer cell line; test: Anti-proliferation assay, synergy score, MDA-MB-453; conditions: in combination with Compound 1, 72 h, mean self cross score + 2σ 2.99
Protocol: as §4, §5, §6, §7, §8, §9, §10

| SMILES | combination effect (conclusion in words) [1] | differences between observed and expected cell viability (% of control) [2] [%] | differences between observed and expected cell viability (% of control) [3] [%] | Synergy Score [4] | Synergy Score [5] | Synergy Score [6] | Synergy Score [7] | Synergy Score [8] | Synergy Score [9] | Synergy Score [10] | Synergy Score [11] | Synergy Score [12] | Synergy Score [13] |
| --- | --- | --- | --- | --- | --- | --- | --- | --- | --- | --- | --- | --- | --- |
| CO[C@H]1CC[C@H](N2C(=O)CNc3ncc(-c4ccc(C(C)(C)O)nc4)nc32)CC1 [Compound 2, 7-(6-(2-hydroxypropan-2-yl)pyridin-3-yl)-1-((1r,4r)-4-methoxycyclohexyl)-3,4-dihydropyrazino-[2,3-b]pyrazin-2(1H)-one] | synergism was observed | 27 | 19 | – | – | – | – | – | – | – | – | – | – |
| Nc1ccccc1NC(=O)c1ccc(CNC(=O)OCc2cccnc2)cc1 [MS-275] | – | – | – | 11.80 | 7.64 | 9.75 | 6.71 | 7.79 | 2.18 | 10.00 | 1.65 | 5.84 | 14.60 |
| CCN1C(=O)CNc2ncc(-c3ccc(-c4nc[nH]n4)nc3C)nc21 [Compound 1, 1-ethyl-7-(2-methyl-6-(1H-1,2,4-triazol-3-yl)pyridin-3-yl)-3,4-dihydropyrazino[2,3-b]pyrazin-2(1H)-one] | – | 23 | 16 | – | – | – | – | – | – | – | – | – | – |
| C/C=C1\NC(=O)[C@H]2CSSCC/C=C/[C@H](CC(=O)N[C@H](C(C)C)C(=O)N2)OC(=O)[C@H](C(C)C)NC1=O [Romidepsin, (1S,4S,7Z,10S,16E,21R)-7-ethylidene-4,21-bis(1-methylethyl)-2-oxa-12,13-dithia-5,8,20,23-tetrazabicyclo[8.7.6]tricos-16-ene-3,6,9,19,22-pentone] | – | – | – | 12.00 | 6.10 | 12.50 | – | 6.00 | 4.80 | 8.39 | 4.80 | 8.00 | 13.80 |
| O=C(/C=C/c1cccc(S(=O)(=O)Nc2ccccc2)c1)NO [Belinostat] | – | – | – | 9.09 | 4.60 | 14.50 | 3.21 | 6.88 | 4.58 | 11.40 | 7.23 | 9.26 | 14.80 |
